Experiment: Evans Blue dye penetration into brain after confined swim stress
Assay type: in vivo
Settings: FIG. 6A
Source text: The above results were confirmed in animal experiments.

Q: With `Cc1cc(-c2ccc(/N=N/c3ccc4c(S(=O)(=O)O)cc(S(=O)(=O)O)c(N)c4c3O)c(C)c2)ccc1/N=N/c1ccc2c(S(=O)(=O)O)cc(S(=O)(=O)O)c(N)c2c1O` [Evans Blue] as the compound, how does the “dye penetration into the brain” value (nonstressed control mice) read?
A: very low levels

Q: What about the “dye penetration into the brain” value (stressed mice) of the same compound?
A: a large amount of the dye penetrates the brain

Source: patent US7063948B1, “Uses of antibodies against AChE and peptides thereof” (Yissum Research Development Company of the Hebrew …, priority 1999, dated 2006)
